Measured values taken from patent US20110086834A1, “ALKYNYL ALCOHOLS AS KINASE INHIBITORS” (AMGEN INC., priority 2008, published 2011).

The molecules below were run against T1, NIK (Homo sapiens, UniProt Q99558) (assay: homogenous time resolved fluorescence (HTRF) assay for NIK Ki measurement). Conditions: truncated NIK (catalytic domain only), autophosphorylation; 10 nM enzyme; 20, 100, 200 or 500 μM ATP; room temperature, 2 hours; read-out: Ki activity in the homogenous time resolved fluorescence (HTRF) assay for NIK.
T1 construct: Both assays utilize a truncated form of NIK containing only the catalytic domain; made in house; host or cells: baculovirus expression system (insect cells implied)
Assay type: biochemical
Protocol: Two formats of biochemical assays are implemented: (1) chemiluminescent (CL) assay for NIK IC50 determination; (2) homogenous time resolved fluorescence (HTRF) assay for NIK Ki measurement. […] The NIK proteins are purified with baculovirus expression system and further biotinylated with N-hydroxysuccinamide biotin ester (Sigma). […] The reaction mixtures are then immobilized on a Streptavidin-coated plate (Pierce). […] For the HTRF assay, 10 nM of enzyme are incubated with compounds in the presence of 20, 100, 200, or 500 μM of ATP in a buffer with 20 mM of Hepes pH7.5, 20 mM of MgCl2, 0.2% of Tween 20 and 1 mM of DTT at room temperature for 2 hours.

T1 sequence (Q99558 400-655 limits assumed): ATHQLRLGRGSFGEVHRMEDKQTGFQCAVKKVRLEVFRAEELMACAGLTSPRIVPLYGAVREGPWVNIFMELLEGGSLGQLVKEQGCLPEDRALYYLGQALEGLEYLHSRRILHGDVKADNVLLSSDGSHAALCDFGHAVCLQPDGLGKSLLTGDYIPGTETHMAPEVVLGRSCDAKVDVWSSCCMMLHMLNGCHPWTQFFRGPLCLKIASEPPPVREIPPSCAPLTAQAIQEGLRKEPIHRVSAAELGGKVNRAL

Ki [nM]	SMILES
< 1000	COCCN(C)C1CCn2c1c(-c1ccncn1)c1cc(C#CC(C)(O)c3nccs3)ccc12 (single isomer, unassigned) [Example 87, 4-((R*)-1-((2-methoxyethyl)(methyl)amino)-9-(pyrimidin-4-yl)-2,3-dihydro-1H-pyrrolo[1,2-a]indol-7-yl)-2-(thiazol-2-yl)but-3-yn-2-ol]
1000 to 30000	C[C@](O)(C#Cc1ccc2c(c1)N(c1nc(N)ncc1Cl)CC21CCOC1)c1nccs1 (single isomer, unassigned) [Example 201, (2S)-4-((3S*)-1′-(2-Amino-5-chloro-4-pyrimidinyl)-1′,2′,4,5-tetrahydrospiro[furan-3,3′-indol]-6′-yl)-2-(1,3-thiazol-2-yl)-3-butyn-2-ol]
< 1000	Cc1cc(C(C)(O)C#Cc2ccc3c(c2)N(c2nc(N)ncc2Cl)C[C@@]32CCOC2)no1 (single isomer, unassigned) [Example 203, 4-((3R*)-1′-(2-Amino-5-chloro-4-pyrimidinyl)-1′,2′,4,5-tetrahydrospiro[furan-3,3′-indol]-6′-yl)-2-(5-methyl-3-isoxazolyl)-3-butyn-2-ol]
< 1000	Cc1cc(C(C)(O)C#Cc2ccc3c(c2)N(c2nc(N)ncc2Cl)CC32CCOC2)no1 (single isomer, unassigned) [Example 204, 4-((3S*)-1′-(2-Amino-5-chloro-4-pyrimidinyl)-1′,2′,4,5-tetrahydrospiro[furan-3,3′-indol]-6′-yl)-2-(5-methyl-3-isoxazolyl)-3-butyn-2-ol]
< 1000	C[C@@](O)(C#Cc1ccc2c(c1)N(c1nc(N)ncc1Cl)CC21CCOCC1)c1nccs1 (single isomer, unassigned) [Example 209]
1000 to 30000	C[C@](O)(C#Cc1ccc2c(c1)N(c1nc(N)ncc1Cl)CC21CCOCC1)c1nccs1 (single isomer, unassigned) [Example 209a]
< 1000	Cc1cc([C@](C)(O)C#Cc2ccc3c(c2)N(c2nc(N)ncc2Cl)CC32CCOCC2)no1 (single isomer, unassigned) [Example 211]
1000 to 30000	C[C@](O)(C#Cc1ccc2c(c1)N(c1nc(N)ncc1Cl)C[C@@]21CCOC1)c1nccs1 (stereo in doubt) [Example 199, (2S)-4-((3R*)-1′-(2-Amino-5-chloro-4-pyrimidinyl)-1′,2′,4,5-tetrahydrospiro[furan-3,3′-indol]-6′-yl)-2-(1,3-thiazol-2-yl)-3-butyn-2-ol]
< 1000	C[C@@](O)(C#Cc1ccc2c(c1)N(c1nc(N)ncc1Cl)C[C@]21CCOC1)c1nccs1 (stereo in doubt) [Example 202, (2R)-4-((3S*)-1′-(2-Amino-5-chloro-4-pyrimidinyl)-1′,2′,4,5-tetrahydrospiro[furan-3,3′-indol]-6′-yl)-2-(1,3-thiazol-2-yl)-3-butyn-2-ol]
< 1000	Cc1noc(C(C)(O)C#Cc2ccc3c(c2)N(c2nc(N)ncc2Cl)CC3)n1 (stereo not shown) [Example 1, 4-(1-(2-amino-5-chloropyrimidin-4-yl)indolin-6-yl)-2-(3-methyl-1,2,4-oxadiazol-5-yl)but-3-yn-2-ol]
< 1000	Cc1ccnc(C(C)(O)C#Cc2ccc3c(c2)N(c2nc(N)ncc2Cl)CC3)c1 (stereo not shown) [Example 5, 4-(1-(2-amino-5-chloropyrimidin-4-yl)indolin-6-yl)-2-(4-methylpyridin-2-yl)but-3-yn-2-ol]
< 1000	CC(O)(C#Cc1ccc2c(c1)N(c1ncns1)CC2(C)C)c1cnccn1 (stereo not shown) [Example 13, 4-(3,3-dimethyl-1-(1,2,4-thiadiazol-5-yl)indolin-6-yl)-2-(pyrazin-2-yl)but-3-yn-2-ol]
< 1000	COc1cc(C#CC2(O)CCCC2)cc2c1CCN2c1nc(N)ncc1F [Example 18, 1-(2-(1-(2-amino-5-fluoropyrimidin-4-yl)-4-methoxyindolin-6-yl)ethynyl)cyclopentanol]

The remaining lines, values behind:

SMILES	Ki [nM]
COCCOc1ccc(C#C[C@](C)(O)c2cc(C)on2)cc1Nc1nc(N)ncc1Cl (single isomer, unassigned) [Example 178]	1000 to 30000
COCCOc1ccc(C#C[C@@](C)(O)c2cc(C)on2)cc1Nc1nc(N)ncc1Cl (single isomer, unassigned) [Example 179]	< 1000
CN1CC2(C1)CN(c1nc(N)ncc1Cl)c1cc(C#CC(C)(O)c3nccs3)ccc12 (single isomer, unassigned) [Example 182a, (2S*)-4-(1′-(2-Amino-5-chloro-4-pyrimidinyl)-1-methyl-1′,2′-dihydrospiro[azetidine-3,3′-indol]-6′-yl)-2-(1,3-thiazol-2-yl)-3-Butyn-2-ol]	1000 to 30000
CN1CC2(C1)CN(c1nc(N)ncc1Cl)c1cc(C#C[C@@](C)(O)c3nccs3)ccc12 (single isomer, unassigned) [Example 182b, (2R*)-4-(1′-(2-Amino-5-chloro-4-pyrimidinyl)-1-methyl-1′,2′-dihydrospiro[azetidine-3,3′-indol]-6′-yl)-2-(1,3-thiazol-2-yl)-3-butyn-2-ol]	< 1000
CN1CCC2(C1)CN(c1nc(N)ncc1Cl)c1cc(C#CC3(O)CCCC3)ccc12 (single isomer, unassigned) [Example 192, 1-(((3S*)-1-(2-Amino-5-chloro-4-pyrimidinyl)-1′-methyl-1,2-dihydrospiro[indole-3,3′-pyrrolidin]-6-yl)ethynyl)cyclopentanol]	< 1000
CN1CCC2(C1)CN(c1nc(N)ncc1Cl)c1cc(C#C[C@](C)(O)c3nccs3)ccc12 (single isomer, unassigned) [Example 194, (2S)-4-((3R*)-1-(2-Amino-5-chloro-4-pyrimidinyl)-1′-methyl-1,2-dihydrospiro[indole-3,3′-pyrrolidin]-6-yl)-2-(1,3-thiazol-2-yl)-3-butyn-2-ol]	1000 to 30000
Cc1cc([C@@](C)(O)C#Cc2ccc3c(c2)N(c2nc(N)ncc2Cl)CC32CCOCC2)no1 (single isomer, unassigned) [Example 211a]	1000 to 30000
Cc1nc(C(C)(O)C#Cc2ccc3c(c2)N(c2nc(N)ncc2Cl)CC3)no1 (stereo not shown) [Example 2, 4-(1-(2-amino-5-chloropyrimidin-4-yl)indolin-6-yl)-2-(5-methyl-1,2,4-oxadiazol-3-yl)but-3-yn-2-ol]	< 1000
Cc1cc(C(C)(O)C#Cc2ccc3c(c2)N(c2nc(N)ncc2Cl)CC3(C)C)no1 (stereo not shown) [Example 3, 4-(1-(2-amino-5-chloropyrimidin-4-yl)-3,3-dimethylindolin-6-yl)-2-(5-methylisoxazol-3-yl)but-3-yn-2-ol]	< 1000
CC(O)(C#Cc1ccc2c(c1)N(c1nc(N)ncc1Cl)CC2)c1cnccn1 (stereo not shown) [Example 4, 4-(1-(2-amino-5-chloropyrimidin-4-yl)indolin-6-yl)-2-(pyrazin-2-yl)but-3-yn-2-ol]	< 1000
Cc1nonc1C(C)(O)C#Cc1ccc2c(c1)N(c1nc(N)ncc1Cl)CC2 (stereo not shown) [Example 6, 4-(1-(2-amino-5-chloropyrimidin-4-yl)indolin-6-yl)-2-(4-methyl-1,2,5-oxadiazol-3-yl)but-3-yn-2-ol]	1000 to 30000
CC(O)(C#Cc1ccc2c(c1)N(c1nc(N)ncc1Cl)CC2)c1ncc(CO)s1 (stereo not shown) [Example 8, 4-(1-(2-amino-5-chloropyrimidin-4-yl)indolin-6-yl)-2-(5-(hydroxymethyl)thiazol-2-yl)but-3-yn-2-ol]	< 1000
CC(O)(C#Cc1ccc2c(c1)N(c1nc(N)ncc1Cl)CC2)c1nc(C#N)cs1 (stereo not shown) [Example 9, 2-(4-(1-(2-amino-5-chloropyrimidin-4-yl)indolin-6-yl)-2-hydroxybut-3-yn-2-yl)thiazole-4-carbonitrile]	1000 to 30000
CC(O)(C#Cc1ccc2c(c1)N(c1nc(N)ncc1Cl)CC2)c1cc(N2CCCCC2)ccn1 (stereo not shown) [Example 10, 4-(1-(2-amino-5-chloropyrimidin-4-yl)indolin-6-yl)-2-(4-(piperidin-1-yl)pyridin-2-yl)but-3-yn-2-ol]	1000 to 30000
CC(O)(C#Cc1ccc2c(c1)N(c1nc(N)ncc1Cl)CC2)c1cc(F)ccn1 (stereo not shown) [Example 11, 4-(1-(2-amino-5-chloropyrimidin-4-yl)indolin-6-yl)-2-(4-fluoropyridin-2-yl)but-3-yn-2-ol]	1000 to 30000
CC(O)(C#Cc1ccc2c(c1)N(c1ncns1)CC2(C)C)c1nccs1 (stereo not shown) [Example 12, 4-(3,3-dimethyl-1-(1,2,4-thiadiazol-5-yl)indolin-6-yl)-2-(thiazol-2-yl)but-3-yn-2-ol]	< 1000
Cc1cc([C@](C)(O)C#Cc2ccc3c(c2)N(c2ncns2)CC3(C)C)no1 [Example 14, (R)-4-(3,3-dimethyl-1-(1,2,4-thiadiazol-5-yl)indolin-6-yl)-2-(5-methylisoxazol-3-yl)but-3-yn-2-ol]	< 1000
Cc1cc([C@@](C)(O)C#Cc2ccc3c(c2)N(c2ncns2)CC3(C)C)no1 [Example 15, (S)-4-(3,3-dimethyl-1-(1,2,4-thiadiazol-5-yl)indolin-6-yl)-2-(5-methylisoxazol-3-yl)but-3-yn-2-ol]	< 1000
Nc1ncc(Cl)c(N2CCc3ccc(C#CC4(O)CCCC4)cc32)n1 [Example 16, 1-(2-(1-(2-amino-5-chloropyrimidin-4-yl)indolin-6-yl)ethynyl)cyclopentanol]	< 1000
COCCOc1ccc(Nc2ncnc(N3CC(C)(C)c4ccc(C#CC5(O)CCCC5)cc43)n2)cc1 [Example 17, 1-(2-(1-(4-(4-(2-methoxyethoxy)phenylamino)-1,3,5-triazin-2-yl)-3,3-dimethylindolin-6-yl)ethynyl)cyclopentanol]	1000 to 30000
CC(=O)Nc1cc(C#CC2(O)CCCC2)cc2c1CCN2c1nc(N)ncc1Cl [Example 19, N-(1-(2-amino-5-chloropyrimidin-4-yl)-6-(2-(1-hydroxycyclopentyl)ethynyl)indolin-4-yl)acetamide]	< 1000
